“Also recorded” adds a separate entry of the source. Like-named read-outs stand apart in the source and are kept apart here.
What was measured:
CD1 mice [1] = test system: CD1 mice
Text: Each experimental group consisted of three mice and the results shown are the mean number of cells in a group±SD.

[2] = test system: A9 mouse fibroblastic cells; experiment: TNF-α-induced apoptosis and Go/G1 arrest (FACS, propidium iodide); format: cell-based
Experimental: In order to test the effect of tyrphostins on the TNF-α-induced apoptosis of the cells, A9 mouse fibroblastic cells were incubated for two hours with cycloheximide (50 μg/ml) after which the various tyrphostins were added at a final concentration of 20 μM except AG1801 that was added at the final concentration of 5 μM. Following one hour incubation with the tyrphostins, TNF-α was added to the cells at a concentration of 0.2 ng/ml and the cells were incubated for an additional ten hours.

A-9 cells = experiment: TNF-induced cytotoxicity in vitro; format: cell-based, mouse; settings: AG (20 μM)
Experimental: Following one hour incubation with the tyrphostins, TNF-α was added to the cells at a concentration of 0.2 ng/ml and the cells were incubated for an additional ten hours. At the end of ten hours, the cell cultures were analyzed by FACS using propidium iodide and the extent of apoptosis in each of the cell cultures (seen as DNA fragmentation) was determined (see Novogrodsky, A., et al., Science, 264:1319-1322, 1994).
The effect of tyrphostins on TNF-induced cytotoxicity was determined in vitro using A-9 cells as described in Example 39 above.

CD1 mice [3] = experiment: LPS-induced lethal toxicity in vivo; settings: tyrphostin 20 mg/kg i.p. two hours prior to E. coli LPS […] i.p.
Experimental: In addition, the effect of tyrphostin on TNF mediated cytotoxicity in vivo was determined in mice injected with LPS (which induces TNF toxicity in vivo). E. coli LPS the concentration of 1.3 mg/mouse was injected i.p. to CD1 mice. While control mice were injected in addition with the vehicle only, the remaining mice were injected with the various tyrphostins (20 mg/kg) i.p. two hours prior to LPS injection.

CD1 mice [4] = experiment: Cisplatin nephrotoxicity: serum creatinine and BUN; format: in vivo; settings: tyrphostin 10 mg/kg i.p. 2 h before cisplatin 14 mg/kg i.p.; four days (FIG. 5)
Text: Mice in the control croup received injections of the vehicle only (a stock solution of ethanol: chemaphore (50:50) diluted with saline). […] Each group consisted of three mice and the results are shown as mean levels of the measured parameter±SD.

CD1 mice [5] = experiment: Reduction of doxorubicin-caused mouse mortality; format: in vivo
Experimental: (§1) 6 weeks old female CD1 mice were divided into the following groups:
i. Mice injected intraperitoneally (i.p.) with doxorubicin (20 mg/kg);
CD1 mice were divided into the following five groups:
i. Mice receiving, a single i.p. injection of 20 mg/kg of doxorubicin;
iii. Mice receiving a single i.p. injection of 20 mg/kg of AG1782 and two hours later an i.p. injection of 20 mg/kg of doxorubicin;
iv. Mice receiving a single i.p. injection of 20 mg/kg of AG126 and two hours later an i.p. injection of 20 mg/kg of doxorubicin.
The % mortality in each of the above groups was determined by scoring the number of dead mice every day until 10 days after injection.

[6] = test system: primary rat cardiomyocytes cultures; experiment: Doxorubicin-induced cardiotoxicity in vitro (cellular beating); format: cell-based; settings: doxorubicin 10 μM alone; 24 hours
Experimental: The cardiomyocyte cultures were divided into the following, four groups receiving:
Cells receiving doxorubicin at a concentration of 10 μM; and
The rate of beats-of clusters of cardiomyocytes (“mini-hearts”) was determined 24 hours after beginning of incubation.

CD1 mice [7] = experiment: Doxorubicin lymphotoxicity (weight of spleen and thymus); format: in vivo; settings: doxorubicin 10 mg/kg i.p. alone; 72 hours
Experimental: 72 hours after doxorubicin administration the mice were sacrificed and the weight of the spleen and thymus of the mice was determined as parameters of lymphotoxicity. Each experimental group consisted of three mice and the results are mean no. of cells±SD. As control, the mice received an injection of the vehicle only instead of doxorubicin.

MCA-105 fibrosarcoma = MCA-105 fibrosarcoma lung metastases in mice; format: in vivo; settings: for weight of the lungs of tumor bearing mice: single agent: AG1801 5 mg/kg, cisplatin 10 mg/kg or doxorubicin 10 mg/kg, 4 days after inoculation (FIG. 25)
Experimental: (§2) 2×10^5/mouse MCA-105 fibrosarcoma cells or Lewis Lung carcinoma cells and 5×10^4/mouse B-16 melanoma cells were injected into the tail vein of C57BL mice.
(§3) Twenty-four days after tumor inoculation, mice were sacrificed, lungs weighed and the number of metastases were scored. Each group contained 5 mice and the results are expressed as the means lungs' weights±SE.
C57BL mice were divided into the following groups:
Mice injected i.v. at the age of 6 weeks with 2×10^5 fibrosarcoma MCA105 cells and 4 days' later, receiving an injection comprising the vehicle only;
Mice injected i.v. at the age of 6 weeks with 2×10^5 fibrosarcoma MCA105 cells and 4 days' later, injected with 10 mg/kg of doxorubicin;

SK-28 human melanoma = SK-28 human melanoma tumor xenografts in nude mice; format: in vivo
Experimental: CD1 athymic mice (nu/nu) were inoculated i.v. with 4×10^5/mouse SK-28 human melanoma. Doxorubicin (4 mg/kg) was injected i.p. 4 days after tumor inoculation.

CD1 mice [8] = experiment: Doxorubicin induced myelotoxicity (femur bone marrow nucleated cells, CFU); settings: doxorubicin 10 mg/kg i.p. alone; 3 days (FIG. 12B)
Experimental: CD1 mice were divided into the following groups:
Mice receiving an i.p. injection of doxorubicin (10 mg/kg) alone;
Mice receiving one injection of the vehicle and two hours later an i.p. injection of doxorubicin (10 mg kg,).
3 days later, the number of bone marrow nucleated cells and colony forming units (CFU) in the femurs of the treated mice was determined (Nikerich, D. A., et al., J. Immunopharmacol., 8:299-313, 1986). Each group contained 3 mice and the results are expressed as a means±SD.
The number of femur nucleated bone marrow cells in the treated mice was determined three days (FIG. 13A) and at various times (FIG. 13B) post doxorubicini administration.
CD1 mice were divided into five groups:
Mice receiving the vehicle alone;
Mice receiving doxorubicin (10 mg/kg) alone;
Three days after doxorubicin administration, the mice were sacrificed and the number of nucleated cells in bone marrow was determined as described above.

CD1 mice [9] = experiment: Reduction of cisplatin-caused mouse mortality; format: in vivo; settings: cisplatin 14 mg/kg alone
Text: as §1

CD1 mice [10] = experiment: Histopathological analysis of kidneys and small intestines after cisplatin; format: in vivo
Experimental: Histopathological analysis of the kidneys and small intestines of the non-treated and treated mice was performed using slices from formaline fixed tissues stained with hematoxylin eosin.

[11] = test system: Lewis Lung carcinoma cells; experiment: Lewis lung carcinoma lung metastases in mice; format: in vivo; settings: agent by itself: cisplatin 4 mg/kg or AG1714 20 mg/kg (FIG. 21B)
Experimental: as §2, §3

[12] = test system: human ovary carcinoma (OVCAR-3) cells; experiment: OVCAR-3 human ovary carcinoma tumor volume in athymic mice; format: in vivo; settings: agent by itself: cisplatin 4 mg/kg or AG1714 20 mg/kg; twenty days (FIG. 23)
Experimental: Athymic mice were inoculated subcutaneously (s.c.) with human ovary carcinoma (OVCAR-3) cells (3×10^6 cells/site). […] Twenty days post tumor inoculation the short (S) and long (L) diameters of the tumor were measured and the tumor volume (V) was calculated according to the formula:
Each group contained 5 mice and the results are expressed as the means±SE.

CD1 female mice = experiment: 5 FU myelotoxicity (bone marrow nucleated cells); format: in vivo; settings: 5 FU 80 mg/kg i.p. alone; five days (FIG. 15)
Experimental: CD1 female mice were divided into the following groups:
A control group receiving a single i.p. injection of the vehicle only (co-solvent: propylene carbonate-cremophor-saline);
Mice receiving a single i.p. injection of 5-fluorouracil (5 FU) at a dose of 80 mg/kg;
Five days after the administration of 5 FU to the mice, the mice were sacrificed and the number of nucleated cells in the bone marrow of one femur, were counted. Each group of mice consisted of two or three mice and the results shown are the mean number of cells counted±SD.

[13] = Cyclophosphamide (50 mg/kg) alone (−), 72 hours
[14] = Table 6A, Doxorubicin (8 mg/kg) alone
[15] = Table 5A, Doxorubicin (4 mg/kg) alone
[16] = Table 5A, Doxorubicin (8 mg/kg) alone
[17] = Table 5B, Doxorubicin (4 mg/kg) alone
[18] = Table 5B, Doxorubicin (8 mg/kg) alone

Experimental for B-16 melanoma: Mice were injected i.v. with 2×10^5 B-16 melanoma cells and 4 days after tumor inoculation each mouse received a single i.p. injection of doxorubicin (4 mg/kg or 8 mg/kg).

Question: What does the source list for `O=P1(N(CCCl)CCCl)NCCCO1` (stereo not drawn) [Cyclophosphamide, cyclophosphamide]?
Answer: Nucleated cells in bone marrow (× 10^6) (CD1 mice [1]; [13]): 6.2 × 10^6; Spleen (CD1 mice [1]; [13]): 52 mg; Thymus (CD1 mice [1]; [13]): 39 mg; number of nucleated cells in the bone marrow, spleen and thymus (CD1 mice [1]; cyclophosphamide 50 mg/kg alone): significant reduction in the number of nucleated cells

Question: How did the “Apoptosis (%)” value ([2]; TNF-α (0.2 ng/ml) +, ten hours, cycloheximide 50 μg/ml, tyrphostins 20 μM, except AG1801 5 μM) turn out when `N#CC(C#N)=Cc1ccc([N+](=O)[O-])c(O)c1` [AG126] was run?
Answer: Its value is 19.4%.

Question: And the “Apoptosis (%)” value ([2]; TNF-α −, cycloheximide 50 μg/ml, tyrphostins 20 μM, except AG1801 5 μM)?
Answer: The value was 8.3%.

Question: What about the “live cells, % of control” value (A-9 cells; TNF 0.05 ng/ml) of the same molecule?
Answer: The value was 75 % of control.

Question: And the “live cells, % of control” value (A-9 cells; TNF 0.2 ng/ml)?
Answer: Its value is 49 % of control.

Question: And the “live cells, % of control” value (A-9 cells; TNF 1.0 ng/ml)?
Answer: The value was 33 % of control.

Question: And the “live cells, % of control” value (A-9 cells; TNF None)?
Answer: Its value is 107 % of control.

Question: And the “% alive mice” value (CD1 mice [3])?
Answer: Its value is 80%.

Question: And the alive/total (CD1 mice [3])?
Answer: The alive/total was 4/5.

Question: For `N#CC(=Cc1ccc([N+](=O)[O-])cc1)C(N)=S` [AG1744], which “nephrotoxicity of cisplatin (serum creatinine level)” value (CD1 mice [4]) is on record?
Answer: Its value is “markedly reduced the nephrotoxicity of cisplatin”.

Question: `COc1cccc2c1C(=O)c1c(O)c3c(c(O)c1C2=O)C[C@@](O)(C(=O)CO)C[C@@H]3O[C@H]1C[C@H](N)[C@H](O)[C@H](C)O1` [Doxorubicin, doxorubicin] was tested. Which “mortality of the mice” value (CD1 mice [5]; 10 i.p. doxorubicin injections 5 mg/kg over 21 days, alone) did it give?
Answer: Its value is “high mortality”.

Question: And the “% mortality” value (CD1 mice [5]; doxorubicin 20 mg/kg i.p. alone, within a week after injection)?
Answer: The value was 90%.

Question: And the “Cellular beating (beats/min)” value [6]?
Answer: The value was 15 ± 1.3 beats/min.

Question: And the “number of beats per minute relative to control cultures” value [6]?
Answer: The value was “about 20%”.

Question: And the “weight of spleens and thymuses” value (CD1 mice [7])?
Answer: Its value is “significant reduction in the weight of spleens”.

Question: And the “Mortality (dead/total)” value (MCA-105 fibrosarcoma; Table 6A, Doxorubicin (4 mg/kg) alone)?
Answer: Its value is 0/5.

Question: And the “Lungs' weight (mg + SEM)” value (MCA-105 fibrosarcoma; [14])?
Answer: Its value is 170 ± 4 mg.

Question: What about the “Mortality (dead/total)” value (MCA-105 fibrosarcoma; [14]) of the same molecule?
Answer: Its value is 5/8.

Question: What about the “Mortality, percent in brackets” value (MCA-105 fibrosarcoma; [14]) of the same molecule?
Answer: The value was 62.5%.

Question: What about the “weight of the lungs of tumor bearing mice” value (MCA-105 fibrosarcoma) of the same molecule?
Answer: The value was “reduced the weight of the mice's lungs to a weight similar to that of control non tumor bearing mice”.

Question: What about the “growth of the SK-28 tumor (lungs' weight, metastases)” value (SK-28 human melanoma; agent by itself: doxorubicin 4 mg/kg or AG1714 20 mg/kg, 24 days (FIG. 22)) of the same molecule?
Answer: The value was “markedly suppressed the growth”.

Question: What about the “Mortality (dead/total)” value (B-16 melanoma; [15]) of the same molecule?
Answer: Its value is 0/4.

Question: What about the “No. of lungs' metastases (+ SD)” value (B-16 melanoma; [15]) of the same molecule?
Answer: Its value is 7 ± 4.

Question: What about the “Mortality (dead/total)” value (B-16 melanoma; [16]) of the same molecule?
Answer: Its value is 3/4.

Question: What about the “Mortality, percent in brackets” value (B-16 melanoma; [16]) of the same molecule?
Answer: The value was 75%.

Question: And the “No. of lungs' metastases (+ SD)” value (B-16 melanoma; [16])?
Answer: The value was 1.

Question: And the “Lungs' weight (mg + SEM)” value (B-16 melanoma; [17])?
Answer: The value was 306 ± 12 mg.

Question: What about the “Mortality (dead/total)” value (B-16 melanoma; [17]) of the same molecule?
Answer: The value was 0/6.

Question: What about the “Mortality (dead/total)” value (B-16 melanoma; [18]) of the same molecule?
Answer: Its value is 7/8.

Question: And the “Mortality, percent in brackets” value (B-16 melanoma; [18])?
Answer: The value was 88%.

Question: What about the “reduction in CFU” value (CD1 mice [8]) of the same molecule?
Answer: The value was 55%.

Question: Which results are given for TNF-α?
Answer: Cell cycle % G1 ([2]; TNF-α (0.2 ng/ml) alone): 85.8%; Cell cycle % G2 + M ([2]; TNF-α (0.2 ng/ml) alone): 6.6%; Cell cycle % S ([2]; TNF-α (0.2 ng/ml) alone): 7.6%; Apoptosis (%) ([2]; Table 9, TNF-α (0.2 ng/ml) alone): 28.7%

Question: How did the mortality (CD1 mice [9]) turn out when `N.N.[Cl][Pt][Cl]` [Cisplatin, cisplatin] was run?
Answer: The mortality was “all the mice in the group receiving cisplatin alone died within ten days”.

Question: What about the histopathology of kidneys (CD1 mice [10]; cisplatin 14 mg/kg alone (FIG. 7B)) of the same molecule?
Answer: Its histopathology of kidneys is “large proteinaceous plaques in the proximal tubals; also recorded: large proteinaceous plaques in the proximal tubules”.

Question: And the “histopathology of small intestine” value (CD1 mice [10]; cisplatin 14 mg/kg alone (FIG. 7E))?
Answer: Its value is “severe necrosis and disintegration of the columnar intestinal epithelial cells; also recorded: severe necrosis and damage”.

Question: And the “anti-tumor effect (lungs' weight, established lung metastases)” value (MCA-105 fibrosarcoma; agent by itself: cisplatin 4 mg/kg or AG1714 20 mg/kg i.p., 24 days (FIG. 21A))?
Answer: Its value is “markedly inhibited the growth”.

Question: What about the “weight of the lungs of tumor bearing mice” value (MCA-105 fibrosarcoma) of the same molecule?
Answer: The value was “reduced the weight of the mice's lungs to a weight similar to that of control non tumor bearing mice”.

Question: What about the “anti-tumor effect (lungs' weight, established lung metastases)” value [11] of the same molecule?
Answer: Its value is “partial anti-tumor effect”.

Question: What about the “weight of the lungs of tumor bearing mice” value (SK-28 human melanoma; single agent: cisplatin or AG1801 (FIG. 26)) of the same molecule?
Answer: The value was “reduced the weight of the lungs of the tumor bearing mice to an extent”.

Question: What about the “anti-tumor effect (tumor volume)” value [12] of the same molecule?
Answer: The value was “marked anti-tumor effect”.

Question: What about the “anti-tumor effect (lungs' weight, established lung metastases)” value (B-16 melanoma; agent alone: Cisplatin (4 mg/kg) or AG1714 (20 mg/kg) (FIG. 21C)) of the same molecule?
Answer: The value was “not effective”.

Question: For `O=c1[nH]cc(F)c(=O)[nH]1` [5 FU, 5-fluorouracil], which “number of nucleated cells in the bone marrow” value (CD1 female mice) is on record?
Answer: Its value is “decrease in the number of nucleated cells”.
